Experimental data taken from ChEMBL document CHEMBL1158281, “Montiporic acids A and B, cytotoxic and antimicrobial polyacetylene carboxylic acids from eggs of the scleractinian coral Montipora digitata” (J Nat Prod, 1996).
In brackets after ≈: the same amount, converted by molar mass. Activity calls are given as the source filed them. No cut-off for these calls is given here.

Tests used:
[1] = test system: P388; assay: Cytotoxicity against mouse P388 cells; assay type: functional, cell-based
[2] = test system: Escherichia coli; assay: Antibacterial activity against Escherichia coli; assay type: functional, organism-based

| Compound | IC50 [1] | Activity [2] |
| --- | --- | --- |
| CCCCCCCC#CC#CCOCC(=O)O [MONOTIPORIC ACID A] | 5 µg/mL (≈ 21.2 µM) | Active |
| C=CCCCCCCCC#CC#CCOCC(=O)O [MONOTIPORIC ACID B] | 12 µg/mL (≈ 45.7 µM) | Active |
